Test results reported in patent publication US20250186411A1, “Methods of Treating Disorders Associated with Overactivation of IKKB” (The United States Government as represented by the …, priority 2023, published 2025).

Tests used:
[1] = system: KLF15 promoter (pEZX-FR03hKLF15p human podocytes); test: KLF15 reporter high-throughput screening assay in human podocytes (firefly/renilla luciferase); format: cell-based; conditions: for fold induction at 1 µM: Homo sapiens, NCI library hits, 24 hours, read-out: Fold Change (KLF15 reporter activity)
Description: Briefly, these podocytes proliferate under permissive conditions (gamma interferon at 33° C.), but differentiate under nonpermissive conditions (37° C.).
The amplified fragment contains MluI and PmeI RE sites and was subcloned into the MluI and PmeI cloning site of the pEZX-FR03 Firefly luciferase (FLuc) and Renilla luciferase (Rluc) reporter cloning vector (GeneCopoeia) to generate pEZX-FR03hKLF15p. Following verification of the sequence by restriction and μsequencing, the pEZX-FR03hKLF15p construct (which contains a puromycin resistance cassette) was transfected into human podocytes followed by selection in puromycin-containing media for 2 weeks. Surviving podocytes clones were pooled together for further analysis.
The library of compounds from the National Cancer Institute (Approved Oncology Drugs Set VI; Natural Products Set III; Diversity Set V; and Mechanistic Diversity Set II) were added to a final concentration of 1 μM in 0.5% DMSO in the low FBS cell culture media (0.2% FBS) using liquid handling system PipetMax (Gilson). After 24 hours incubation at 37° C., the Luc-Pair™ Duo-Luciferase HT Assay Kit (GeneCopoeia LF015) were used and firefly and renilla luciferase activity was determined using the SpectraMax M3 (Molecular Devices). Positive controls were all-trans retinoic acid (atRA) (1 μM) and dexamethasone (DEX) (1 μM). Negative controls were DMSO and cell-free media.
(§1) To identify small molecule inducers of KLF15 expression in human podocytes, human podocytes were generated with a dual reporter, firefly luciferase directed at the KLF15 promoter region and renilla luciferase (pEZX-FR03hKLF15p). […] The positive controls were inducers of KLF15 expression, dexamethasone (DEX) and all-trans retinoic acid (atRA), and […] and cell-free wells served as negative controls.

[2] = system: KLF15 promoter with mutation in the GRE (pEZX-FR03hKLF5p-mutant podocytes); test: GR-mutant KLF15 reporter assay; format: cell-based, human; conditions: as compared to DMSO
[3] = system: KLF15 promoter (pEZX-FR03hKLF5p human podocytes); test: Lipopolysaccharide treatment in human podocytes, KLF15 reporter activity; format: cell-based; conditions: as compared to DMSO
Description: (§2) Differentiated pEZX-FR03hKLF5p human podocytes were treated with 25 μg/ml lipopolysaccharide (LPS) or vehicle and 1 μM KLF15 agonist or vehicle control for 24 hours. Firefly and renilla luciferase assay were measured initially to determine relative KLF15 reporter activity.

human podocytes = test: Cell viability of podocytes (renilla activity, MTS assay); format: cell-based; conditions: for toxicity to human podocytes: analogue screen
Description: as §2
(§3) Differentiated pEZX-FR03hKLF5p human podocytes were treated with 0.4 μg/ml adriamycin (ADR) or vehicle and 1 μM KLF15 agonist or vehicle control for 24 hours. Firefly and renilla luciferase assay were measured initially to determine relative KLF15 reporter activity.
To assess cell viability, the CellTiter 96® AQueous One Solution Reagent (Promega) was added to the culture media and plates were incubated for 2 hours at 37° C. with 5% CO2.

[4] = system: KLF15 promoter (pEZX-FR03hKLF15p human podocytes); test: Half maximal effective concentration (EC50) of KLF15 reporter activity; format: cell-based; conditions: Homo sapiens; KLF15 reporter activity, dose-response; read-out: EC50
Description: The EC50 was determined using nonlinear regression and then choosing the equation of Sigmoidal function, 4PL method (X is log(concentration); or the equation of log(agonist) vs. response—variable slope).
as §1

[5] = system: KLF15 promoter (pEZX-FR03hKLF5p human podocytes); test: Adriamycin treatment in human podocytes, KLF15 reporter activity; format: cell-based; conditions: as compared to DMSO-treated podocytes
Description: as §3

[6] = system: differentiated human podocytes; test: Actin stress fiber formation and KLF15 immunocytochemistry; format: cell-based; conditions: LPS-treated podocytes
Description: To determine actin stress fiber formation, differentiated human podocytes were treated with 25 μg/ml LPS or vehicle and 1 μM KLF15 agonist or vehicle control for 24 hours. Subsequently, podocytes were fixed and stained for F-actin using Alexa Fluor 647 Phalloidin (Life Technologies). Fixation, permeabilization, and staining with phalloidin were performed as per the manufacturer's protocol. […] Briefly, phalloidin staining pattern in each cell was classified into the following types: Type A (90% of cell area filled with thick cables), Type B (no thick cables but some cables present), and Type C (no cables visible in the central area of the cell). Unless specified, 100-200 cells were quantified in a blinded manner for each group in three independent experiments.
Differentiated human podocytes were initially washed with phosphate-buffered saline (PBS) and subsequently fixed with 3.7% formaldehyde in the growth medium. Podocytes were washed and permeabilized with 0.25% Triton X-100, and then blocked in 10% normal horse serum (NHS) and incubated with rabbit anti-KLF15 antibody overnight. The next day, cells were washed with PBS and incubated in Donkey anti-Rabbit IgG (H+L) Secondary Antibody, Alexa Fluor™ 568 (Invitrogen) in 10% NHS. Subsequently, cells were washed and incubated with Hoechst (Thermo Fisher Scientific) before mounting.

[7] = system: KLF15 and Synaptopodin expression; test: Real-time PCR of KLF15 and synaptopodin in podocytes under LPS; format: cell-based, human; conditions: podocytes under LPS conditions, vs DMSO
Description: (§4) Total RNA from cells was extracted by using TRIzol (Life Technologies). First-strand cDNA was prepared from total RNA (up to 1.25 μg) using the SuperScript™ IV VILO™ Master Mix (Life Technologies), and cDNA was amplified in triplicate using PowerUp™ SYBR™ Green Master Mix on an ABI QuantStudio3 (Applied Biosystems). Primers for human and mouse genes were designed using NCBI Primer-BLAST and validated for efficiency before application (Table 1). Data were normalized to housekeeping genes (GAPDH or ACTB) and presented as a fold increase compared with RNA isolated from the control group using the ΔΔCT method.

FVB/n mice = test: LPS-induced proteinuric murine model; format: in vivo, mouse; conditions: LPS proteinuric murine model, concurrent treatment, vs DMSO
Description: In the LPS-induced proteinuric model, all 8-week-old FVB/n mice were initially treated with LPS [intraperitoneal (IP), 10 μg/g, Sigma-Aldrich] or sterile normal saline (IP) at 0- and 24-hour time points as previously described (17). […] Urine was collected and mice were euthanized 48 hours post-LPS treatment.
Urine albumin was quantified by ELISA using a kit from Bethyl Laboratory Inc. Urine creatinine levels were measured in the same samples using the Creatinine Colorimetric Assay Kit (500701; Cayman Chemical) as per manufacturer's protocol.
Briefly, mice were perfused with PBS containing 2.5 mg/ml iron oxide and 1% BSA. At the end of perfusion, kidneys were removed, decapsulated, minced into 1 mm^3 pieces, and digested in PBS containing 1 mg/ml collagenase A. Digested tissue was subsequently passed through a 100 μm cell strainer and collected by centrifugation. The pellet was resuspended in 1 ml PBS and glomeruli were collected using a magnet. The purity of glomeruli was verified under microscopy. Total RNA was isolated from kidney glomeruli of mice using the RNeasy Kit (Qiagen, Germantown, MD).
as §4
Transmission Electron Microscopy (TEM) was done in the Central Microscopy Imaging Center at Stony Brook Medicine. Briefly, after embedding the kidney tissues in epoxy resin, ultrathin sections were stained with uranyl acetate and lead citrate, then mounted on a copper grid, and photographed under a FEI BioTwin G2 Transmission Electron Microscope with AMT XR-60 CCD digital Camera (FEI).

[8] = as compared to DMSO-treated podocytes

| Compound | KLF15 activity as compared to DEX-treated podocytes [1] | EC50 [4] [nM] | KLF15-mutant reporter activity [2] | KLF15 activity in the setting of LPS treatment [3] | toxicity to human podocytes (human podocytes) | renilla activity (cell viability) in the setting of LPS treatment (human podocytes; [8]) | fold induction at 1 µM [1] | KLF15 activity in the setting of adriamycin (ADR) [5] | cell viability (renilla activity and MTT assay) in the setting of ADR (human podocytes; [8]) | renilla activity in dose-response (human podocytes; higher doses (10^4 nM), relative to DMSO) | KLF15 expression and actin stress fiber formation (immunostaining) [6] | KLF15 and Synaptopodin expression [7] | albuminuria (FVB/n mice) |
| --- | --- | --- | --- | --- | --- | --- | --- | --- | --- | --- | --- | --- | --- |
| O=C(Nc1ccc2ccccc2c1)c1ccc(Cl)cc1Cl [C-15, 2,4-dichloro-N-(naphthalen-2-yl)benzamide] |  | 10.9 | induced similar KLF15 activity |  |  |  | 2.97 | induced KLF15 activity |  |  |  |  |  |
| CSc1ccc(NC(=O)Nc2cc(C)ccn2)cc1 [C-7, 1-(4-Methylpyridin-2-yl)-3-(4-methylsulfanylphenyl)urea] |  | 11.9 | induced similar KLF15 activity | maintained KLF15 activity |  |  | 3.17 | induced KLF15 activity | maintained | significant increase in renilla activity | restored KLF15 expression and actin stress fiber formation | restored | significantly abrogated albuminuria |
| Nc1ccccc1-n1nc2ccc3ccccc3c2n1 [C-9, 2-benzo[e]benzotriazol-2-ylaniline] |  | 76.3 | induced similar KLF15 activity |  |  |  | 2.72 | induced KLF15 activity |  |  |  |  |  |

More lines, main results first:

| KLF15 activity as compared to DEX-treated podocytes [1] | EC50 [4] [nM] | Compound | KLF15-mutant reporter activity [2] | KLF15 activity in the setting of LPS treatment [3] | toxicity to human podocytes (human podocytes) | renilla activity (cell viability) in the setting of LPS treatment (human podocytes; [8]) | fold induction at 1 µM [1] | KLF15 activity in the setting of adriamycin (ADR) [5] | cell viability (renilla activity and MTT assay) in the setting of ADR (human podocytes; [8]) | renilla activity in dose-response (human podocytes; higher doses (10^4 nM), relative to DMSO) | KLF15 expression and actin stress fiber formation (immunostaining) [6] | KLF15 and Synaptopodin expression [7] | albuminuria (FVB/n mice) |
| --- | --- | --- | --- | --- | --- | --- | --- | --- | --- | --- | --- | --- | --- |
| higher KLF15 activity |  | CSc1ccc(NC(=O)Nc2ccc(C#N)cn2)cc1 [BT502] | induced KLF15 activity | maintained the elevated KLF15 activity | no observed toxicity | restored renilla activity |  |  |  |  |  |  |  |
| higher KLF15 activity |  | CSc1ccc(NC(=O)c2ccc(O)cc2)cc1 [BT501] | induced KLF15 activity | maintained the elevated KLF15 activity | no observed toxicity |  |  |  |  |  |  |  |  |
